Experimental data as given in patent US5985968A, “Surface tension reduction with N,N-dialkyl ureas” (Air Products and Chemicals, Inc., priority 1997, dated 1999).
Values after ≈ are worked out from the molar mass of the structure shown.

What was measured:
Type in all cases: physicochemical
[1] = Solubility in water (saturated solution / solubility limit); details: for dissolution (in words): 0.1 g urea in 99.9 g water, shaken 1-2 h; for solubility thermodynamic: saturated solution in distilled water, solids filtered off, read-out: Concentration of saturated solution
Experimental: (§1) A series of aqueous solutions of various concentrations of n-octylurea [Pfaltz & Bauer] was prepared by placing the urea into water and shaking the mixture for 1-2 h. All of the urea dissolved in the low concentration samples. Undissolved urea in some of the higher concentration samples was remove by filtration. Surface tensions of these solutions were measured using the Wilheimy plate technique. This method provides equilibrium surface tension values. Equilibrium values are always equal to or lower than those obtained under dynamic conditions.
(§2) A saturated solution in distilled water of N,N'-di-n-butylurea was prepared by placing 0.1 g of the urea into 99.9 g of water and shaking the mixture for 1-2 h. […] The solids were removed by filtration, and the dynamic surface tension of the resulting solution was measured using the maximum bubble pressure method at bubble rates from 0.1 to 20 b/s. […] In practical terms, high bubble rates correspond to high printing speeds in lithographic or ink-jet printing, high spray or roller velocities in coating applications, and rapid application rates for agricultural products.
A saturated solution in distilled water of N,N-di-(2-ethylhexyl)urea was prepared by placing 0.1 g of the urea into 99.9 g of water and shaking the mixture for 1-2 h. […] The solids were removed by filtration, and the surface tension of the resulting solution was measured as described above.
Similarly, a saturated solution in distilled water of N,N-di-n-octylurea was prepared by placing 0.1 g of the urea into 99.9 g of water and shaking the mixture for 1-2 hr. […] The solids were removed by filtration, and the surface tension of the resulting solution was measured as described above.
A saturated solution in distilled water of N,N-di-n-hexylurea was prepared by placing 0.1 g of the urea into 99.9 g of water and shaking the mixture for 1-2 h. […] The solids were removed by filtration, and the surface tension of the resulting solution was measured as described above.

[2] = Dynamic surface tension of aqueous solutions, maximum-bubble-pressure method; details: for Dynamic Surface Tension: about 23° C.; for Surface tension reduction (in words): summary of dynamic surface tension data
Text: This invention relates to the use of compounds of the formula [drawing 3] where R1 and R2 are independently C1 to C6 alkyl or cycloalkyl with the total number of carbons in R and R' being 6-12 for the reduction of equilibrium and dynamic surface tension in water-based formulations containing an organic compound, particularly coating, ink, and agricultural formulations. […] The maximum-bubble-pressure method of measuring surface tension is described in Langmuir 1986, 2, 428-432, which is incorporated by reference.
In the following examples dynamic surface tension data were generated for aqueous solutions of the indicated compounds using the maximum-bubble-pressure method at the indicated bubble rates, i.e., bubbles/second (b/s), and room temperature of about 23° C. The equipment used was a Kruss BP 2 bubble pressure tensiometer.
as §2
Aqueous solutions of N,N-dibutylurea were prepared and their surface tensions were measured using the procedure described above.

[3] = Foaming properties of 0.1 wt % solution, procedure based upon ASTM D 1173-53
Experimental: The foaming properties of a 0.1 wt % solution of N,N-dibutylurea, N,N-dipentyl-urea, and N,N-dihexylurea were examined using a procedure based upon ASTM D 1173-53. In this test, a 0.1 wt % solution of the surfactant is added from an elevated foam pipette to a foam receiver containing the same solution. The foam height is measured at the completion of the addition ("Initial Foam Height") and the time required for the foam to dissipate is recorded ("Time to 0 Foam"). This test provides a comparison between the foaming characteristics of various surfactant solutions. In general, in coatings, inks, and agricultural formulations, foam is undesirable because is complicates handling and can lead to coating and print defects, and to inefficient application of agricultural materials.

[4] = Equilibrium surface tension of aqueous solutions, Wilhelmy plate technique
Experimental: as §1

Molecule: CCCCC(CC)CN(CC(CC)CCCC)C(N)=O (stereo not shown) [N,N-Di-(2-ethylhexyl)urea, N,N-di-(2-ethylhexyl)urea, reference compound]
- dissolution (in words) [1]: Most of the urea remained undissolved
- solubility thermodynamic [1]: < 1000 µg/mL
- Dynamic Surface Tension ([2]; saturated (<0.1 wt %), 0.1 b/s): 60.1 dyne/cm
- Dynamic Surface Tension ([2]; saturated (<0.1 wt %), 1 b/s): 69.2 dyne/cm
- Dynamic Surface Tension ([2]; saturated (<0.1 wt %), 6 b/s): 69.6 dyne/cm
- Dynamic Surface Tension ([2]; saturated (<0.1 wt %), 15 b/s): 69.3 dyne/cm
- Dynamic Surface Tension ([2]; saturated (<0.1 wt %), 20 b/s): 68.1 dyne/cm

Molecule: CCCN(CCC)C(N)=O [N,N-Di-n-propylurea, N,N-di-n-propylurea]
- Dynamic Surface Tension ([2]; 0.5 wt %, 0.1 b/s): 53.8 dyne/cm
- Dynamic Surface Tension ([2]; 0.5 wt %, 1 b/s): 54.0 dyne/cm
- Dynamic Surface Tension ([2]; 0.5 wt %, 6 b/s): 54.3 dyne/cm
- Dynamic Surface Tension ([2]; 0.5 wt %, 15 b/s): 53.8 dyne/cm
- Dynamic Surface Tension ([2]; 0.5 wt %, 20 b/s): 53.7 dyne/cm
- Dynamic Surface Tension ([2]; 2.0 wt %, 0.1 b/s): 43.4 dyne/cm
- Dynamic Surface Tension ([2]; 2.0 wt %, 1 b/s): 43.6 dyne/cm
- Dynamic Surface Tension ([2]; 2.0 wt %, 6 b/s): 43.9 dyne/cm
- Dynamic Surface Tension ([2]; 2.0 wt %, 15 b/s): 44.4 dyne/cm
- Dynamic Surface Tension ([2]; 2.0 wt %, 20 b/s): 44.5 dyne/cm
- Dynamic Surface Tension ([2]; 4.0 wt %, 0.1 b/s): 39.0 dyne/cm
- Dynamic Surface Tension ([2]; 4.0 wt %, 1 b/s): 39.1 dyne/cm
- Dynamic Surface Tension ([2]; 4.0 wt %, 6 b/s): 39.3 dyne/cm
- Dynamic Surface Tension ([2]; 4.0 wt %, 15 b/s): 39.5 dyne/cm
- Dynamic Surface Tension ([2]; 4.0 wt %, 20 b/s): 39.6 dyne/cm
- Surface tension reduction (in words) [2]: reasonably effective at reducing the surface tension of water

Molecule: N,N-dipentylurea
- solubility limit ([1]; in water): 0.3 wt %
- Dynamic Surface Tension ([2]; 0.1 wt %, 0.1 b/s): 36.3 dyne/cm
- Dynamic Surface Tension ([2]; 0.1 wt %, 1 b/s): 37.1 dyne/cm
- Dynamic Surface Tension ([2]; 0.1 wt %, 6 b/s): 38.7 dyne/cm
- Dynamic Surface Tension ([2]; 0.1 wt %, 15 b/s): 40.7 dyne/cm
- Dynamic Surface Tension ([2]; 0.1 wt %, 20 b/s): 41.3 dyne/cm
- Dynamic Surface Tension ([2]; 0.2 wt %, 0.1 b/s): 32.8 dyne/cm
- Dynamic Surface Tension ([2]; 0.2 wt %, 1 b/s): 33.4 dyne/cm
- Dynamic Surface Tension ([2]; 0.2 wt %, 6 b/s): 34.6 dyne/cm
- Dynamic Surface Tension ([2]; 0.2 wt %, 15 b/s): 36.2 dyne/cm
- Dynamic Surface Tension ([2]; 0.2 wt %, 20 b/s): 36.3 dyne/cm
- Dynamic Surface Tension ([2]; 0.3 wt %, 0.1 b/s): 30.9 dyne/cm
- Dynamic Surface Tension ([2]; 0.3 wt %, 1 b/s): 31.5 dyne/cm
- Dynamic Surface Tension ([2]; 0.3 wt %, 6 b/s): 32.4 dyne/cm
- Dynamic Surface Tension ([2]; 0.3 wt %, 15 b/s): 32.9 dyne/cm
- Dynamic Surface Tension ([2]; 0.3 wt %, 20 b/s): 33.1 dyne/cm
- Initial Foam Height [3]: 1.5 cm
- Time to 0 Foam [3]: 3 s

Molecule: CCCCCCCCNC(N)=O [N-Octylurea, n-octylurea]
- solubility ([1]; in water): 100 µg/mL (≈ 0.58 mM)
- Equilibrium surface tension ([4]; 0.0001 wt % in water): 72.2 dyne/cm
- Equilibrium surface tension ([4]; 0.0005 wt % in water): 72.1 dyne/cm
- Equilibrium surface tension ([4]; 0.001 wt % in water): 72.0 dyne/cm
- Equilibrium surface tension ([4]; 0.003 wt % in water): 68.9 dyne/cm
- Equilibrium surface tension ([4]; 0.005 wt % in water): 62.4 dyne/cm
- Equilibrium surface tension ([4]; 0.007 wt % in water): 60.0 dyne/cm
- Equilibrium surface tension ([4]; 0.009 wt % in water): 57.0 dyne/cm
- Equilibrium surface tension ([4]; 0.015 wt % in water): 57.1 dyne/cm
- Equilibrium surface tension ([4]; 0.03 wt % in water): 55.5 dyne/cm
- Equilibrium surface tension ([4]; 0.06 wt % in water): 57.1 dyne/cm
- lowest surface tension which can be obtained for an aqueous solution ([4]; limiting value from Table 1 data): about 56 dyne/cm

Molecule: CCCCN(CCCC)C(N)=O [N,N-Dibutylurea, N,N-dibutylurea]
- Dynamic Surface Tension ([2]; 0.3 wt %, 0.1 b/s): 42.9 dyne/cm
- Dynamic Surface Tension ([2]; 0.3 wt %, 1 b/s): 43.1 dyne/cm
- Dynamic Surface Tension ([2]; 0.3 wt %, 6 b/s): 43.4 dyne/cm
- Dynamic Surface Tension ([2]; 0.3 wt %, 15 b/s): 43.4 dyne/cm
- Dynamic Surface Tension ([2]; 0.3 wt %, 20 b/s): 43.6 dyne/cm
- Dynamic Surface Tension ([2]; 1.0 wt %, 0.1 b/s): 32.7 dyne/cm
- Dynamic Surface Tension ([2]; 1.0 wt %, 1 b/s): 32.9 dyne/cm
- Dynamic Surface Tension ([2]; 1.0 wt %, 6 b/s): 33.2 dyne/cm
- Dynamic Surface Tension ([2]; 1.0 wt %, 15 b/s): 33.8 dyne/cm
- Dynamic Surface Tension ([2]; 1.0 wt %, 20 b/s): 34.1 dyne/cm
- Dynamic Surface Tension ([2]; 1.5 wt %, 0.1 b/s): 28.2 dyne/cm
- Dynamic Surface Tension ([2]; 1.5 wt %, 1 b/s): 28.3 dyne/cm
- Dynamic Surface Tension ([2]; 1.5 wt %, 6 b/s): 28.5 dyne/cm
- Dynamic Surface Tension ([2]; 1.5 wt %, 15 b/s): 29.1 dyne/cm
- Dynamic Surface Tension ([2]; 1.5 wt %, 20 b/s): 29.5 dyne/cm
- Dynamic Surface Tension ([2]; 1.5 wt %, 20 b/s, listed as N,N-dibutylurea): below 30 dyne/cm
- Surface tension reduction (in words) [2]: highly effective at reducing the surface tension of water
- Initial Foam Height [3]: 3.0 cm
- Time to 0 Foam [3]: 5 s

Molecule: CCCCCCN(CCCCCC)C(N)=O [N,N-Di-n-hexylurea, N,N-di-n-hexylurea]
- dissolution (in words) [1]: Most of the N,N-di-n-hexylurea remained undissolved
- solubility thermodynamic [1]: < 1000 µg/mL
- Dynamic Surface Tension ([2]; saturated (<0.1 wt %), 0.1 b/s): 34.7 dyne/cm
- Dynamic Surface Tension ([2]; saturated (<0.1 wt %), 1 b/s): 42.8 dyne/cm
- Dynamic Surface Tension ([2]; saturated (<0.1 wt %), 6 b/s): 56.8 dyne/cm
- Dynamic Surface Tension ([2]; saturated (<0.1 wt %), 15 b/s): 63.7 dyne/cm
- Dynamic Surface Tension ([2]; saturated (<0.1 wt %), 20 b/s): 62.4 dyne/cm
- Initial Foam Height [3]: 1.0 cm
- Time to 0 Foam [3]: 2 s

Molecule: CCCCNC(=O)NCCCC [N,N'-Di-n-butylurea, N,N'-di-n-butylurea, reference compound]
- dissolution (in words) [1]: Most of the N,N'-di-n-butylurea remained undissolved
- solubility thermodynamic [1]: < 1000 µg/mL
- Dynamic Surface Tension ([2]; saturated (<0.1 wt %), 0.1 b/s): 59.0 dyne/cm
- Dynamic Surface Tension ([2]; saturated (<0.1 wt %), 1 b/s): 59.6 dyne/cm
- Dynamic Surface Tension ([2]; saturated (<0.1 wt %), 6 b/s): 60.2 dyne/cm
- Dynamic Surface Tension ([2]; saturated (<0.1 wt %), 15 b/s): 60.6 dyne/cm
- Dynamic Surface Tension ([2]; saturated (<0.1 wt %), 20 b/s): 60.9 dyne/cm

Molecule: CCCCCCCCN(CCCCCCCC)C(N)=O [N,N-Di-n-octylurea, N,N-di-n-octylurea, reference compound]
- dissolution (in words) [1]: Most of the urea remained undissolved
- solubility thermodynamic [1]: < 1000 µg/mL
- Dynamic Surface Tension ([2]; saturated (<0.1 wt %), 0.1 b/s): 52.9 dyne/cm
- Dynamic Surface Tension ([2]; saturated (<0.1 wt %), 1 b/s): 69.8 dyne/cm
- Dynamic Surface Tension ([2]; saturated (<0.1 wt %), 6 b/s): 71.1 dyne/cm
- Dynamic Surface Tension ([2]; saturated (<0.1 wt %), 15 b/s): 70.3 dyne/cm
- Dynamic Surface Tension ([2]; saturated (<0.1 wt %), 20 b/s): 69.4 dyne/cm

Molecule: CN(C(N)=O)C1CCCCC1 [N-cyclohexyl-N-methylurea]
- Dynamic Surface Tension ([2]; 1.0 wt %, 0.1 b/s): 51.9 dyne/cm
- Dynamic Surface Tension ([2]; 1.0 wt %, 1 b/s): 52.4 dyne/cm
- Dynamic Surface Tension ([2]; 1.0 wt %, 6 b/s): 52.9 dyne/cm
- Dynamic Surface Tension ([2]; 1.0 wt %, 15 b/s): 53.2 dyne/cm
- Dynamic Surface Tension ([2]; 1.0 wt %, 20 b/s): 53.2 dyne/cm
- Dynamic Surface Tension ([2]; 2.5 wt %, 0.1 b/s): 44.1 dyne/cm
- Dynamic Surface Tension ([2]; 2.5 wt %, 1 b/s): 44.6 dyne/cm
- Dynamic Surface Tension ([2]; 2.5 wt %, 6 b/s): 45.1 dyne/cm
- Dynamic Surface Tension ([2]; 2.5 wt %, 15 b/s): 45.6 dyne/cm
- Dynamic Surface Tension ([2]; 2.5 wt %, 20 b/s): 45.8 dyne/cm
- Surface tension reduction (in words) [2]: reasonably effective at reducing the surface tension of water
